Test results published in PubChem BioAssay (NCI).
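These data come from cells grown in 96-well plates and exposed to compound for 48 hours at five concentrations. TGI: total growth inhibition.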

Experiments:
Experiment in all cases: DTP human tumour cell line panel, 48 h
[1] = tested on: SN12C renal
[2] = tested on: SNB-19 CNS
[3] = tested on: HCC-2998 colon
[4] = tested on: SW-620 colon
[5] = tested on: SK-MEL-5 melanoma
[6] = tested on: K-562 leukemia
[7] = tested on: HOP-18 NSCLC
[8] = tested on: RXF-631 renal
[9] = tested on: LOX IMVI melanoma
[10] = tested on: KM12 colon
[11] = tested on: OVCAR-5 ovarian
[12] = tested on: KM20L2 colon
[13] = tested on: CCRF-CEM leukemia
[14] = tested on: HOP-62 NSCLC
[15] = tested on: SK-MEL-28 melanoma
[16] = tested on: M14 melanoma
[17] = tested on: ACHN renal
[18] = tested on: SF-268 CNS
[19] = tested on: COLO 205 colon
[20] = tested on: OVCAR-8 ovarian
[21] = tested on: HCT-116 colon
[22] = tested on: 786-0 renal
[23] = tested on: UACC-62 melanoma
[24] = tested on: SK-MEL-2 melanoma
[25] = tested on: MALME-3M melanoma
[26] = tested on: HOP-92 NSCLC
[27] = tested on: SF-295 CNS
[28] = tested on: UACC-257 melanoma
[29] = tested on: RXF 393 renal
[30] = tested on: RPMI-8226 leukemia
[31] = tested on: LXFL 529 NSCLC
[32] = tested on: UO-31 renal
[33] = tested on: HCT-15 colon
[34] = tested on: A498 renal
[35] = tested on: SK-OV-3 ovarian
[36] = tested on: HL-60(TB) leukemia
[37] = tested on: SNB-78 CNS
[38] = tested on: NCI-H522 lung
[39] = tested on: NCI-H226 lung
[40] = tested on: DLD-1 colon
[41] = tested on: M19-MEL melanoma
[42] = tested on: TK-10 renal
[43] = tested on: IGROV1 ovarian
[44] = tested on: EKVX NSCLC
[45] = tested on: SF-539 CNS
[46] = tested on: OVCAR-3 ovarian
[47] = tested on: XF 498 CNS
[48] = tested on: DMS 114 small cell lung
[49] = tested on: NCI-H460 lung
[50] = tested on: DMS 273 small cell lung
[51] = tested on: OVCAR-4 ovarian
[52] = tested on: NCI-H23 lung
[53] = tested on: HT29 colon
[54] = tested on: U251 CNS
[55] = tested on: A549 NSCLC
[56] = tested on: CAKI-1 renal
[57] = tested on: SNB-75 CNS
[58] = tested on: SR leukemia
[59] = tested on: MOLT-4 leukemia

For `CCN(CC)C(=S)S`, the TGI [1] was > 100 µM, the TGI [2] was > 100 µM and the TGI [3] was > 100 µM. For the same compound, the TGI [4] was > 100 µM, the TGI [5] was > 43.6 µM and the TGI [6] was 30.1 µM. For the same compound, the TGI [7] was > 100 µM, the TGI [8] was > 67.4 µM and the TGI [9] was > 100 µM. The TGI [10] was > 100 µM, the TGI [11] was > 100 µM and the TGI [12] was > 100 µM. The TGI [13] was 9.46 µM, the TGI [14] was > 100 µM and the TGI [15] was > 84.6 µM. For the same compound, the TGI [16] was > 59.8 µM, the TGI [17] was > 100 µM and the TGI [18] was > 100 µM. For the same compound, the TGI [19] was > 100 µM, the TGI [20] was > 100 µM and the TGI [21] was 19.7 µM. The TGI [22] was > 100 µM, the TGI [23] was 12.3 µM and the TGI [24] was > 100 µM. For the same compound, the TGI [25] was 60.4 µM, the TGI [26] was > 100 µM and the TGI [27] was > 100 µM. For the same compound, the TGI [28] was 65.1 µM, the TGI [29] was > 100 µM and the TGI [30] was > 100 µM. The TGI [31] was > 100 µM, the TGI [32] was > 100 µM and the TGI [33] was > 100 µM. The TGI [34] was > 100 µM, the TGI [35] was > 100 µM and the TGI [36] was 33.3 µM. The TGI [37] was > 100 µM, the TGI [38] was 0.362 µM and the TGI [39] was > 100 µM. The TGI [40] was > 100 µM, the TGI [41] was > 37.5 µM and the TGI [42] was > 100 µM. For the same compound, the TGI [43] was > 100 µM, the TGI [44] was > 100 µM and the TGI [45] was > 100 µM.
With `O=C(O)C1=C(C(=O)O)Oc2ccccc2O1` the TGI [1] was > 100 µM, the TGI [2] was > 100 µM and the TGI [3] was > 100 µM. For the same compound, the TGI [46] was > 100 µM, the TGI [4] was > 100 µM and the TGI [6] was > 100 µM. For the same compound, the TGI [7] was > 100 µM, the TGI [47] was > 100 µM and the TGI [9] was > 100 µM. For the same compound, the TGI [48] was > 100 µM, the TGI [49] was > 100 µM and the TGI [10] was > 100 µM. The TGI [11] was > 100 µM, the TGI [12] was > 100 µM and the TGI [13] was > 100 µM. For the same compound, the TGI [14] was > 100 µM, the TGI [15] was > 100 µM and the TGI [50] was > 100 µM. For the same compound, the TGI [51] was > 100 µM, the TGI [16] was > 100 µM and the TGI [17] was > 100 µM. For the same compound, the TGI [18] was > 100 µM, the TGI [19] was > 100 µM and the TGI [20] was > 100 µM. For the same compound, the TGI [21] was > 100 µM, the TGI [22] was > 100 µM and the TGI [23] was > 100 µM. For the same compound, the TGI [24] was > 100 µM, the TGI [52] was > 100 µM and the TGI [25] was > 100 µM. For the same compound, the TGI [26] was > 100 µM, the TGI [27] was > 100 µM and the TGI [28] was > 100 µM. The TGI [29] was > 100 µM, the TGI [31] was > 100 µM and the TGI [32] was > 100 µM. For the same compound, the TGI [53] was > 100 µM, the TGI [54] was > 100 µM and the TGI [33] was > 100 µM. For the same compound, the TGI [34] was > 100 µM, the TGI [35] was > 100 µM and the TGI [36] was > 100 µM. For the same compound, the TGI [55] was > 100 µM, the TGI [37] was > 100 µM and the TGI [38] was > 100 µM. For the same compound, the TGI [56] was > 100 µM, the TGI [57] was > 100 µM and the TGI [39] was > 100 µM. The TGI [40] was > 100 µM, the TGI [41] was > 100 µM and the TGI [42] was > 100 µM. The TGI [58] was > 100 µM, the TGI [43] was > 100 µM and the TGI [44] was > 100 µM. The TGI [59] was > 100 µM and the TGI [45] was > 100 µM.
